Laboratory results as given in US7781175B2, “Method of screening compounds which alter the binding properties of GPR39, and homologs thereof, to bile acid” (Takeda Pharmaceutical Company Limited, priority 2004, dated 2010).

How the values were obtained:
Type in all cases: cell-based
[1] = test system: GPR39-expressed cell line UM-UC-3; experiment: IL-8 secretion from GPR39-expressed cell line UM-UC-3, quantified by EIA; conditions: 500 μM, 4 hours
Protocol: Using the GPR39-expressed cell line UM-UC-3 (Dainippon Pharmaceutical), effects by the addition of bile acids as the GPR39 agonist were examined.
On the day before assay, UM-UC-3 was cultured until preconfluent in MINIMUM ESSENTIAL MEDIUM (WITH EARLE'S SALTS, WITH L-GLUTAMINE) (GIBCO BRL) supplemented with 10% FCS and MEM NON-ESSENTIAL AMINO ACIDS (GIBCO BRL), washed with PBS, detached using trypsin, centrifuged for recovery and then suspended in a medium to 3×10^6 cells/ml. After a 100 μl aliquot was dispensed into each well of a 96-well plate (Falcon), followed by incubation overnight in a CO2 incubator.
On the assay day, after the medium for the cells prepared on the preceding day was removed, the cells were washed with MEM NON-ESSENTIAL AMINO ACIDS-containing MINIMUM ESSENTIAL MEDIUM (WITH EARLE'S SALTS, WITH L-GLUTAMINE). A […] was further charged in each well, followed by incubation […] at 37° C. in a CO2 incubator. Subsequently, a 100 μl aliquot of MEM NON-ESSENTIAL AMINO ACIDS-containing MINIMUM ESSENTIAL MEDIUM (WITH EARLE'S SALTS, WITH L-GLUTAMINE), to which various test samples were added, was dispensed into each well, followed by incubation […]. After the culture supernatant was recovered, IL-8 contained in each sample was quantified by EIA (Amersham).

[2] = molecular target: T1, GPR39 (SEQ ID NO: 1) (Homo sapiens, UniProt O43194); experiment: SRE-luciferase reporter assay for ligand activity in GPR39-expressed HeLa cells; conditions: for Increased Luciferase Activity (cps) by TLCA in GPR39-Expressed Cells: GPR39-expressed HeLa cells, 4 hours, 0 μM baseline 3574
T1 construct: expressed in transfected cells; host or cells: HeLa cells, transient transfection (vector pAKKO-111H)
T1 sequence (O43194 1-453): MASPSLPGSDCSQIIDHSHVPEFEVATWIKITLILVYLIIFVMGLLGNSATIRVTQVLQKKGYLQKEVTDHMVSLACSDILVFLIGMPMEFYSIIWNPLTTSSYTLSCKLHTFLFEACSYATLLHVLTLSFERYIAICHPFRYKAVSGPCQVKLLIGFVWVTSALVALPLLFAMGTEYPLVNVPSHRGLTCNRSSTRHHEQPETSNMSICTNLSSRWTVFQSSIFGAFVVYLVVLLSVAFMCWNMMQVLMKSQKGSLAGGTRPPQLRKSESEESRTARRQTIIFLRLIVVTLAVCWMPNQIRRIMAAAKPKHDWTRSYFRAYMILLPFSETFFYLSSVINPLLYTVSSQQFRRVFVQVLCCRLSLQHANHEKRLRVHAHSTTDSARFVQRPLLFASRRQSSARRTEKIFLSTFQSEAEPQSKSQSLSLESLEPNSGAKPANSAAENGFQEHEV
Protocol: (§1) First, cDNA encoding G protein-coupled receptor protein, the GPR39 (SEQ ID NO: 1) prepared by the method publicly known was inserted into pAKKO-111H (the same plasmid vector as pAKKO-1.111H described in Biochem. Biophys. Acta, Hinuma, S. et al., 1219, 251-259, 1994). Using the expression plasmid for animal cells thus obtained, Escherichia coli JM109 was transfected and the colonies obtained were isolated and cultured. Thereafter, large scale plasmid preparation was carried out using QIAGEN Plasmid Maxi Kit (Qiagen). Furthermore, the pSRE-Luc reporter plasmid (Invitrogen) ligated with a luciferase gene as a reporter at the downstream of serum response element (SRE), and expression vector plasmids for human GαoA, human Gβ1 and human Gγ2, which are a kind of G proteins, were prepared in a similar manner.
(§2) HeLa cells as host cells for transfecting the G protein-coupled receptor protein expression plasmid and the reporter plasmid were plated on a 384-well assay plate (COSTAR 3704) at 4000 cells/well in a culture volume of 25 μl, followed by incubation overnight. The medium used was DMEM (Invitrogen) supplemented with 10% fetal calf serum and 1% MEM non-essential amino acids solution (DMEM/NEAA).
(§3) Each plasmid was added to and mixed with 240 μl of Opti-MEM-I (Invitrogen) in a proportion of 1 μl of the protein expression plasmid or, for comparison, expression vector pAKKO-111H without DNA encoding the receptor protein in place of an expression plasmid of the receptor, 9 μl of the reporter plasmid and 1 μl each of the G protein-coupled receptor protein expression plasmid GαoA, Gβ1 or Gγ2. […]
(§4) The HeLa cells prepared in EXAMPLE 1 were washed twice with fetal calf serum-free DMEM/NEAA (assay medium) and then cultured in the same assay medium at 37° C. under 5% CO2 for 2 hours. […] After the cells were lysed and thoroughly mixed with the substrate, the chemiluminescence level corresponding to the expression induction level of the reporter gene in each well was measured on the plate reader (EnVision™, Perkin-Elmer).

[3] = test system: pAKKO-111H transfected cells (control); experiment: SRE-luciferase reporter assay in pAKKO-111H transfected HeLa cells for control; conditions: for Luciferase Activity (cps), pAKKO-111H (control): pAKKO-111H transfected HeLa cells, 4 hours, 0 μM baseline 2042
Protocol: as §1, §2, §3, §4

luciferase activity in the GPR39-expressed cells (in words) ([2]; TLCA 5 μM or 20 μM) | Increased Luciferase Activity (cps) by TLCA in GPR39-Expressed Cells ([2]; TLCA level 5 μM) | Increased Luciferase Activity (cps) by TLCA in GPR39-Expressed Cells ([2]; TLCA level 20 μM) | SMILES | IL-8 accumulated in culture supernatant compared to absence of the conjugate [1] | luciferase activity in the pAKKO-111H transfected cells for control (in words) ([3]; TLCA added) | Luciferase Activity (cps), pAKKO-111H (control) ([3]; TLCA level 5 μM) | Luciferase Activity (cps), pAKKO-111H (control) ([3]; TLCA level 20 μM)
– | – | – | C[C@H](CCC(=O)NCCS(=O)(=O)O)[C@H]1CC[C@H]2[C@@H]3CC[C@@H]4C[C@H](O)CC[C@]4(C)[C@H]3C[C@H](O)[C@]12C [taurine conjugate of deoxycholic acid] | approximately twice as much | – | – | –
increased luciferase activity | 5977 cps | 8114 cps | C[C@H](CCC(=O)NCCS(=O)(=O)[O-])[C@H]1CC[C@H]2[C@@H]3CC[C@@H]4C[C@H](O)CC[C@]4(C)[C@H]3CC[C@]12C.[Na+] [TLCA, sodium taurolithocholate] | – | any marked increase of the activity was not detected | 2214 cps | 2542 cps
